Data on 31 molecules can be found in US10538487B2, “Sulfonylureas and related compounds and use of same” (priority 2015, dated 2020).

The target of experiment [1] is NLRP3 inflammasome (Mus musculus, UniProt Q8R4B8). Briefly: Inhibition of IL-1β release, NLRP3 inflammasome activation assay in BMDM. The experiment is classed as cell-based. As for the experimental part:
The following assays can be used to determine inhibitory activity of test compounds on the NLRP3 inflammasome using common stimuli such as adenosine triphosphate, nigericin, LeuLeu-OMe or monosodium urate crystals (MSU).
Mouse bone marrow-derived macrophages (BMDM) were derived from bone marrow progenitors isolated from the femurs and tibias of C57BL/6 mice.
BMDM are seeded at 1×10^5/ml. The following day the overnight medium is replaced and cells are stimulated with Ultrapure lipopolysaccharide from Escherichia coli K12 strain (InvivoGen) for 3 h. Medium is removed and replaced with serum free medium (SFM) containing test compound 30 min prior to NLRP3 stimulation. […] ATP can be sourced from Sigma Aldrich, nigericin and MSU from Invivogen and LeuLeu-Ome from Chem-Impex International.
For ELISA and cell death assays cells are seeded in 96 well plates. Supernatants are removed and analysed using ELISA kits according to the manufacturer's instructions (DuoSet® R&D Systems, ReadySetGo!® eBioscience, BD OptEIA™, or Perkin Elmer AlphaLISA®). Cell death is assessed by measurement of LDH release relative to a 100% cell lysis control using the CytoTox96® non-radioactive cytotoxicity assay (Promega).

Experiment [2] addresses NLRP3 inflammasome (Homo sapiens, UniProt Q96P20). Briefly: Inhibition of IL-1β release, NLRP3 inflammasome activation assay in HMDM. It is filed as cell-based. In a few lines:
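Primary human monocyte-derived macrophages from CD14+ buffy-coat monocytes, seeded at 1×10^5/ml. Compound added in serum-free medium 30 min before NLRP3 stimulation (ATP, nigericin, LeuLeu-OMe or MSU). Cytokine in supernatants measured by ELISA or AlphaLISA; cell death by LDH release relative to full lysis.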

[3] abbreviates: inhibition of IL-1β release, class symbols, read-out: Avg. IL-1β IC50 Murine BMDM.
The mark [4] stands for this setting: inhibition of IL-1β release, class symbols, read-out: Avg. IL-1β IC50 HMDM.
The mark [5] stands for this setting: commercial compounds (Table 9), read-out: BMDM IC50 vs NLRP3.
Setting [6] is: commercial compounds (Table 9), read-out: HMDM IC50 vs NLRP3.
Where [7] appears, read: inhibition of IL-1β release, numeric bounds, read-out: Avg. IL-1β IC50 Murine BMDM.
The mark [8] stands for this setting: select compounds of the first aspect (Table 10), read-out: BMDM IC50 vs NLRP3.
[9] abbreviates: select compounds of the first aspect (Table 10), read-out: HMDM IC50 vs NLRP3.
Where [10] appears, read: inhibition of IL-1β release, numeric bounds, read-out: Avg. IL-1β IC50 HMDM.

Like-named read-outs stand apart in the source and are kept apart here.

Sequence of NLRP3 inflammasome (Homo sapiens, UniProt Q96P20) (Q96P20 whole entry): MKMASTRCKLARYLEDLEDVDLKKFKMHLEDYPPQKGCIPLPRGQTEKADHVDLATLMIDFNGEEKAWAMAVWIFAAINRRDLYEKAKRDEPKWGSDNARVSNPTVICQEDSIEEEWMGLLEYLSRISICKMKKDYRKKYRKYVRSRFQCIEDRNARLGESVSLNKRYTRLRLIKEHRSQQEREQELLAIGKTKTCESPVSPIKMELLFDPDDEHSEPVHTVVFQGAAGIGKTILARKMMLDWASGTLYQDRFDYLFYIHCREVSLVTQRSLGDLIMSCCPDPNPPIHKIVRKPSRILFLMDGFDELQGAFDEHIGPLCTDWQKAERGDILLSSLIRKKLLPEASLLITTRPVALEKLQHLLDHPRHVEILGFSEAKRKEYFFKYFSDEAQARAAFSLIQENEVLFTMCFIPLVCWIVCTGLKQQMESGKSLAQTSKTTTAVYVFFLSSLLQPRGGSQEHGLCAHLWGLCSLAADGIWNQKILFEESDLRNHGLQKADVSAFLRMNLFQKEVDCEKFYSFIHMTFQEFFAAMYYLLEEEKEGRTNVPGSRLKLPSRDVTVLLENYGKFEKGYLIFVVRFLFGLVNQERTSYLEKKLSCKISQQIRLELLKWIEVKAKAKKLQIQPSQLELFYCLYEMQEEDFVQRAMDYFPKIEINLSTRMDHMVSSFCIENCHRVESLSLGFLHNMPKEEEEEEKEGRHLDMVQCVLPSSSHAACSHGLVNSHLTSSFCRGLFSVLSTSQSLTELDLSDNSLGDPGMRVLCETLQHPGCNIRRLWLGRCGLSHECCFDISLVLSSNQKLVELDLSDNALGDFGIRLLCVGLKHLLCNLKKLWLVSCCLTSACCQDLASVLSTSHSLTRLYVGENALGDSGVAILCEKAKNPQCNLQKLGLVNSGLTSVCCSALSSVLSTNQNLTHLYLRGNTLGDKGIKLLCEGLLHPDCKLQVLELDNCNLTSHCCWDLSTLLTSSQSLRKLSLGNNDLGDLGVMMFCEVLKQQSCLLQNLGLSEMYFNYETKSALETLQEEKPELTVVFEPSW
Sequence of NLRP3 inflammasome (Mus musculus, UniProt Q8R4B8) (Q8R4B8 whole entry): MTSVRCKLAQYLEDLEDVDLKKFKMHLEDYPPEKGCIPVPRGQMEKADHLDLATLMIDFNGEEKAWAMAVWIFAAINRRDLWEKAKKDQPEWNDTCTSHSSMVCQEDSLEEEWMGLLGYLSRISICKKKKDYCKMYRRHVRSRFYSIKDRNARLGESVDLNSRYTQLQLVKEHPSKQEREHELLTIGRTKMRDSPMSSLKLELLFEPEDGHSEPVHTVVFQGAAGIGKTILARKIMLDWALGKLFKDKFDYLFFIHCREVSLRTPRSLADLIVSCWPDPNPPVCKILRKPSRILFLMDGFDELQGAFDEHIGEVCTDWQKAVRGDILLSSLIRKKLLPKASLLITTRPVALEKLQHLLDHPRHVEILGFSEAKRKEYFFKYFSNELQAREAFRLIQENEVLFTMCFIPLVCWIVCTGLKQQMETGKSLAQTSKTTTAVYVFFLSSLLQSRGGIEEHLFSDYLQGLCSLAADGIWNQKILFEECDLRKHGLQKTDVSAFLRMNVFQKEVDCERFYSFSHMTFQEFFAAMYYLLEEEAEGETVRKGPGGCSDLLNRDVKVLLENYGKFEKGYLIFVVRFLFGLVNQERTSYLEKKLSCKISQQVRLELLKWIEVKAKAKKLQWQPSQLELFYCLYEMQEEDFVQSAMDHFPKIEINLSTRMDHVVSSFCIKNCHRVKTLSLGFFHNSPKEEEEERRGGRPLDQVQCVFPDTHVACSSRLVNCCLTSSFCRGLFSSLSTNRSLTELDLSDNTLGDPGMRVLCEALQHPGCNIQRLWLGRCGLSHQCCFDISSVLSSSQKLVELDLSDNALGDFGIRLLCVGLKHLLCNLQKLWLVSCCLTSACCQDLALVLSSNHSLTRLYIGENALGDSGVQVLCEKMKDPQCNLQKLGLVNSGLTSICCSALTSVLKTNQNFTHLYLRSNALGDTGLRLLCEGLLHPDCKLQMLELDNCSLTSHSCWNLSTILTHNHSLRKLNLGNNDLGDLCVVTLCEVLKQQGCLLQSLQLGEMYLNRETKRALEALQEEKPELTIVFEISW

By IC50 is commonly meant the concentration that gives 50% inhibition. For `COc1ccc(Cl)cc1C(=O)NCCc1ccc(S(=O)(=O)NC(=O)Nc2c3c(cc4c2CCC4)CCC3)cc1`, the IC50 on NLRP3 inflammasome [1] (setting [3]) and at NLRP3 inflammasome [2] (setting [4]) was below 1 µM each time.
For `O=C(CCCC[C@@H]1SC[C@@H]2NC(=O)N[C@@H]21)NCCCn1cc(CCC(=O)Nc2cccc(S(=O)(=O)NC(=O)Nc3c4c(cc5c3CCC5)CCC4)c2)nn1` [N-(3-(4-(3-((3-(N-((1,2,3,5,6,7-hexahydro-s-indacen-4-yl)carbamoyl)sulfamoyl)phenyl)amino)-3-oxopropyl)-1H-1,2,3-triazol-1-yl)propyl)-5-((3aS,4S,6aR)-2-oxohexahydro-1H-thieno[3,4-d]imidazol-4-yl)pentanamide], the IC50 on NLRP3 inflammasome [1] (setting [3]) and on NLRP3 inflammasome [2] (setting [4]) was below 10 µM in each case.
For `CCCCNC(=O)NS(=O)(=O)c1ccc(C)cc1` [Tolbutamide, reference compound], the IC50 on NLRP3 inflammasome [1] (setting [5]) and at NLRP3 inflammasome [2] (setting [6]) was above 200 µM throughout.
As to `CC(C)(O)c1coc(S(=O)(=O)NC(=O)Nc2ccc(C(F)(F)F)cc2C(F)(F)F)c1` [N-((2,4-bis(trifluoromethyl)phenyl)carbamoyl)-4-(2-hydroxypropan-2-yl)furan-2-sulfonamide], the results for the IC50 on NLRP3 inflammasome [1] (setting [3]) and at NLRP3 inflammasome [2] (setting [4]) were below 1 µM and below 10 µM, respectively.
Turning to `O=C(Nc1c2c(cc3c1CCC3)CCC2)NS(=O)(=O)c1ccc2c(c1)CCC2` [N-((1,2,3,5,6,7-hexahydro-s-indacen-4-yl)carbamoyl)-2,3-dihydro-1H-indene-5-sulfonamide], the results for the IC50 on NLRP3 inflammasome [1] (setting [3]) and at NLRP3 inflammasome [2] (setting [4]) were below 0.1 µM and below 10 µM, respectively.
In the case of `Cc1c2c(c(NC(=O)NS(=O)(=O)c3cc(C(C)(C)O)co3)c3c1CCC3)CCC2` [4-(2-hydroxypropan-2-yl)-N-((8-methyl-1,2,3,5,6,7-hexahydro-s-indacen-4-yl)carbamoyl)furan-2-sulfonamide], the half-inhibitory concentration (IC50) on NLRP3 inflammasome [1] (setting [3]) and at NLRP3 inflammasome [2] (setting [4]) was below 0.1 µM each time.
Consider `CC(C)(O)c1coc(S(=O)(=O)NC(=O)Nc2cc(C(F)(F)F)ccc2C(F)(F)F)c1` [N-((2,5-bis(trifluoromethyl)phenyl)carbamoyl)-4-(2-hydroxypropan-2-yl)furan-2-sulfonamide], for which the IC50 on NLRP3 inflammasome [1] (setting [3]) is below 1 µM; at NLRP3 inflammasome [2] (setting [4]) it was below 10 µM.
As to `COc1cc(Cl)cc(OC)c1NC(=O)NS(=O)(=O)c1ccn(C(C)C)n1` [N-((4-chloro-2,6-dimethoxyphenyl)carbamoyl)-1-isopropyl-1H-pyrazole-3-sulfonamide], the half-maximal inhibitory concentration (IC50) is above 10 µM on NLRP3 inflammasome [1] (setting [7]) and below 50 µM on NLRP3 inflammasome [2] (setting [4]).
`CC(C)(O)c1coc(S(=O)(=O)NC(=O)Nc2c3c(c(Cl)c4c2CCC4)CCC3)c1` [N-((8-chloro-1,2,3,5,6,7-hexahydro-s-indacen-4-yl)carbamoyl)-4-(2-hydroxypropan-2-yl)furan-2-sulfonamide]: the IC50 at NLRP3 inflammasome [1] (setting [3]) and at NLRP3 inflammasome [2] (setting [4]) was below 0.1 µM throughout.
With `COc1ccc(Cl)cc1C(=O)NCCc1ccc(S(=O)(=O)NC(=O)Nc2c3c(cc4c2CCC4)CCC3)cc1` [drawing 358], the IC50 on NLRP3 inflammasome [1] (setting [8]) stood at 0.24 µM; on NLRP3 inflammasome [2] (setting [9]), 0.14 µM.
With `O=C(Nc1c2c(cc3c1CCC3)CCC2)NS(=O)(=O)c1ccc2c(c1)CCC2` [drawing 367], the IC50 was 0.05 µM at NLRP3 inflammasome [1] (setting [8]) and 1.46 µM on NLRP3 inflammasome [2] (setting [9]).
Take `CC(=O)c1ccc(S(=O)(=O)NC(=O)Nc2c3c(cc4c2CCC4)CCC3)cc1` [drawing 363]: the IC50 on NLRP3 inflammasome [1] (setting [8]) was found to be 0.036 µM; at NLRP3 inflammasome [2] (setting [9]) it was 0.31 µM.
Turning to `CC(C)n1cc(S(=O)(=O)NC(=O)Nc2c3c(cc4c2CCC4)CCC3)nn1` [N-((1,2,3,5,6,7-hexahydro-s-indacen-4-yl)carbamoyl)-1-isopropyl-1H-1,2,3-triazole-4-sulfonamide], the figures for the 50% inhibitory concentration (IC50) at NLRP3 inflammasome [1] (setting [3]) and on NLRP3 inflammasome [2] (setting [4]) were below 1 µM and below 0.1 µM, respectively.
`O=C(Nc1c2c(cc3c1CCC3)CCC2)NS(=O)(=O)c1ccc(Cl)cc1` [drawing 366]: the half-inhibitory concentration (IC50) at NLRP3 inflammasome [1] (setting [8]) was 0.03 µM; on NLRP3 inflammasome [2] (setting [9]), 0.3 µM.
`Cc1cnc(C(=O)NCCc2ccc(S(=O)(=O)NC(=O)NC3CCCCC3)cc2)cn1` [Glipizide, reference compound]: the half-inhibitory concentration (IC50) on NLRP3 inflammasome [1] (setting [5]) and on NLRP3 inflammasome [2] (setting [6]) was above 200 µM each time.
In the case of `NS(=O)(=O)c1cccc(S(=O)(=O)NC(=O)Nc2c3c(cc4c2CCC4)CCC3)c1` [N^1-(1,2,3,5,6,7-Hexahydros-indacen-4-ylcarbamoyl)benzene-1,3-disulfonamide], the half-inhibitory concentration (IC50) at NLRP3 inflammasome [1] (setting [3]) and on NLRP3 inflammasome [2] (setting [4]) was below 0.1 µM throughout.
As for `O=C(Nc1ccc(Cl)cc1)NS(=O)(=O)c1ccc2c(c1)CCC2` [N-((4-chlorophenyl)carbamoyl)-2,3-dihydro-1H-indene-5-sulfonamide], the values for the IC50 at NLRP3 inflammasome [1] (setting [7]) and at NLRP3 inflammasome [2] (setting [10]) were above 10 µM and above 100 µM, respectively.
On to `CC(=O)c1ccc(S(=O)(=O)NC(=O)NC2CCCCC2)cc1` [Acetohexamide, reference compound], for which the half-inhibitory concentration (IC50) at NLRP3 inflammasome [1] (setting [5]) and on NLRP3 inflammasome [2] (setting [6]) was above 200 µM each time.
Take `O=C(Nc1c2c(cc3c1CCC3)CCC2)NS(=O)(=O)c1ccc(CCNc2ccc([N+](=O)[O-])c3nonc23)cc1` [N-((1,2,3,5,6,7-hexahydro-s-indacen-4-yl)carbamoyl)-4-(2-((7-nitrobenzo[c][1,2,5]oxadiazol-4-yl)amino)ethyl)benzenesulfonamide]: the IC50 at NLRP3 inflammasome [1] (setting [3]) and at NLRP3 inflammasome [2] (setting [4]) was below 1 µM in each case.
For `O=C(Nc1c2c(cc3c1CCC3)CCC2)NS(=O)(=O)c1cccc(C(F)(F)F)c1` [N-((1,2,3,5,6,7-hexahydro-s-indacen-4-yl)carbamoyl)-3-(trifluoromethyl)benzenesulfonamide], the concentration for half-maximal inhibition (IC50) is below 1 µM at NLRP3 inflammasome [1] (setting [3]) and below 0.1 µM on NLRP3 inflammasome [2] (setting [4]).
Regarding `CCCNC(=O)NS(=O)(=O)c1ccc(Cl)cc1` [Chlorpropamide, reference compound], the IC50 at NLRP3 inflammasome [1] (setting [5]) and on NLRP3 inflammasome [2] (setting [6]) was above 200 µM in each case.
As for `COc1ccc2c(c1)C(=O)N(CCc1ccc(S(N)(=O)=O)cc1)C(=O)C2(C)C` [Gliquidone precursor, 4-(2-(7-Methoxy-4,4-dimethyl-1,3-dioxo-3,4-dihydroisoquinolin-2(1H)-yl)ethyl)benzenesulfonamide, reference compound], the IC50 on NLRP3 inflammasome [1] (setting [5]) was above 10 µM; at NLRP3 inflammasome [2] (setting [6]) it was above 200 µM.
`CC(C)c1cc(Cl)cc(C(C)C)c1NC(=O)NS(=O)(=O)c1cc2ccccc2s1` [N-((4-chloro-2,6-diisopropylphenyl)carbamoyl)benzo[b]thiophene-2-sulfonamide]: the IC50 on NLRP3 inflammasome [1] (setting [3]) is below 1 µM; on NLRP3 inflammasome [2] (setting [4]) it was below 0.1 µM.
In the case of `O=C(Nc1ccc2ncccc2c1)NS(=O)(=O)c1cccc(C2(C(F)(F)F)N=N2)c1` [N-(quinolin-6-ylcarbamoyl)-3-(3-(trifluoromethyl)-3H-diazirin-3-yl)benzenesulfonamide], the IC50 is above 50 µM on NLRP3 inflammasome [1] (inhibition of IL-1β release, uM, read-out: Avg. IL-1β IC50 Murine BMDM) and above 50 µM on NLRP3 inflammasome [2] (inhibition of IL-1β release, uM, read-out: Avg. IL-1β IC50 HMDM).
Consider `Cc1cc(C)nc(NC(=O)NS(=O)(=O)c2cc(C(C)(C)O)co2)n1` [N-((4,6-dimethylpyrimidin-2-yl)carbamoyl)-4-(2-hydroxypropan-2-yl)furan-2-sulfonamide], for which the concentration for half-maximal inhibition (IC50) was above 10 µM on NLRP3 inflammasome [1] (setting [7]) and above 50 µM at NLRP3 inflammasome [2] (setting [10]).
For the molecule `CC(C)c1cc(Cl)cc(C(C)C)c1NC(=O)NS(=O)(=O)c1cc2ccccc2o1` [N-((4-chloro-2,6-diisopropylphenyl)carbamoyl)benzofuran-2-sulfonamide], the 50% inhibitory concentration (IC50) at NLRP3 inflammasome [1] (setting [3]) and at NLRP3 inflammasome [2] (setting [4]) was below 0.1 µM throughout.
As for `C=C(C)c1coc(S(=O)(=O)NC(=O)Nc2c3c(cc4c2CCC4)CCC3)c1` [N-((1,2,3,5,6,7-hexahydro-s-indacen-4-yl)carbamoyl)-4-(prop-1-en-2-yl)furan-2-sulfonamide], the IC50 at NLRP3 inflammasome [1] (setting [3]) and on NLRP3 inflammasome [2] (setting [4]) was below 1 µM throughout.
Take `COc1cccc(S(=O)(=O)NC(=O)Nc2c3c(cc4c2CCC4)CCC3)c1` [N-(1,2,3,5,6,7-hexahydros-indacen-4-ylcarbamoyl)-3-methoxybenzenesulfonamide]: the IC50 at NLRP3 inflammasome [1] (setting [3]) and on NLRP3 inflammasome [2] (setting [4]) was below 0.1 µM throughout.
As to `Cc1cc(Cl)cc(C(F)(F)F)c1NC(=O)NS(=O)(=O)c1ccn(C(C)C)n1` [N-((4-chloro-2-methyl-6-(trifluoromethyl)phenyl)carbamoyl)-1-isopropyl-1H-pyrazole-3-sulfonamide], the half-inhibitory concentration (IC50) was above 10 µM on NLRP3 inflammasome [1] (setting [7]) and below 10 µM at NLRP3 inflammasome [2] (setting [4]).
For the molecule `Cc1ccc(S(=O)(=O)NC(=O)NN2CC3CCCC3C2)cc1` (centres unmarked) [Gliclazide, reference compound], the IC50 on NLRP3 inflammasome [1] (setting [5]) and at NLRP3 inflammasome [2] (setting [6]) was above 200 µM throughout.
For the molecule `COc1ccc2c(c1)C(=O)N(CCc1ccc(S(=O)(=O)NC(=O)Nc3c4c(cc5c3CCC5)CCC4)cc1)C(=O)C2(C)C` [drawing 361], the IC50 at NLRP3 inflammasome [1] (setting [8]) is 0.26 µM; on NLRP3 inflammasome [2] (setting [9]), 2.3 µM.
